Test results taken from patent US7470680B2, “Constrained compounds as CGRP-receptor antagonists” (Bristol-Myers Squibb Company, priority 2006, dated 2008).

biological target: CGRP receptor (Homo sapiens, UniProt O60894+Q16602); assay: CGRP radioligand binding assay ([125I]-CGRP displacement, SK-N-MC homogenate); set-up: endogenous in cells; host or cells: SK-N-MC cells (homogenate/membrane pellet); details: Table 1; displacement of [125I]-CGRP, SK-N-MC membranes
Description: CGRP Binding Assay. Tissue Culture. SK-N-MC cells were grown at 37° C. in 5% CO2 as a monolayer in medium consisting of MEM with Earle's salts and L-glutamine (Gibco) supplemented with 10% fetal bovine serum (Gibco). Cell Pellets. The cells were rinsed twice with phosphate-buffered saline (155 mM NaCl, 3.3 mM Na2HPO4, 1.1 mM KH2PO4, pH 7.4), and incubated for 5-10 min. at 4° C. in hypotonic lysis buffer consisting of 10 mM Tris (pH 7.4) and 5 mM EDTA. The cells were transferred from plates to polypropylene tubes (16×100 mm) and homogenized using a polytron. Homogenates were centrifuged at 32,000×g for 30 min. The pellets were resuspended in cold hypotonic lysis buffer with 0.1% mammalian protease inhibitor cocktail (Sigma) and assayed for protein concentration. The SK-N-MC homogenate was then aliquoted and stored at −80° C. until needed.
Radioligand Binding Assay. The compounds of invention were solubilized and carried through serial dilutions using 100% DMSO. Aliquots from the compound serial dilutions were further diluted 25 fold into assay buffer (50 mM Tris-Cl pH 7.5, 5 mM MgCl2, 0.005% Triton X-100) and transferred (volume 50 μl) into 96 well assay plates. [^125I]-CGRP (Amersham Biosciences) was diluted to 60 pM in assay buffer and a volume of […] was added to each well. SK-N-MC pellets were thawed, diluted in assay buffer with fresh 0.1% mammalian protease inhibitor cocktail (Sigma), and homogenized again. SK-N-MC homogenate (5 μg/well) was added in a volume of 100 μl. The assay plates were then incubated at room temperature for 2 h. Assays were stopped by addition of excess cold wash buffer (20 mM Tris-Cl pH 7.5, 0.1% BSA) immediately followed by filtration over glass fiber filters (Whatman GF/B) previously soaked in 0.5% PEI. Non-specific binding was defined with 1 μM beta-CGRP. Protein bound radioactivity was determined using a gamma or scintillation counter. The IC50 was defined as the concentration of a compound of invention required to displace 50% of radioligand binding.

Chain of CGRP receptor (Q16602 23-461): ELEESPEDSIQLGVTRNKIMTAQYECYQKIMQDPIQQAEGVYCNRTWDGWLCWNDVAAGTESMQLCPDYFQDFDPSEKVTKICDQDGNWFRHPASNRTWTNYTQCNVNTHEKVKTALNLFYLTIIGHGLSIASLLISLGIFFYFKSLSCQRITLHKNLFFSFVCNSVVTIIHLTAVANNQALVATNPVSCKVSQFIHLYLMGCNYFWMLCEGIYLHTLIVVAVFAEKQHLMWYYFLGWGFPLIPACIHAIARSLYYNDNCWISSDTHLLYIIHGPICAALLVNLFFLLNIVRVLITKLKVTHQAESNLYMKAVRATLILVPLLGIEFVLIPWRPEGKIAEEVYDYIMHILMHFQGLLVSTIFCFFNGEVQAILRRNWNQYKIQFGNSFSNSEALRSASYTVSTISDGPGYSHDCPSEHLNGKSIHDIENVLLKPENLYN
Chain of CGRP receptor (O60894 27-148): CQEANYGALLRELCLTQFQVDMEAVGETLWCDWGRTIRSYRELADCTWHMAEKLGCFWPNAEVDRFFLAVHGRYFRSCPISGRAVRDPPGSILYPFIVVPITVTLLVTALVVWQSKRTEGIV

IC50 [nM] | SMILES
0.01 to 10 | O=C(C[C@@H]1Cc2cc(Cl)c3[nH]ncc3c2CN(CC(F)(F)F)C1=O)N1CCC(N2CCc3ccccc3NC2=O)CC1
100 to 1000 | O=C(C[C@@H]1Cc2cc(Cl)c3[nH]ncc3c2CN(CC(F)(F)F)C1=O)N1CCC(n2ccn(-c3ccccc3)c2=O)CC1
0.01 to 10 | O=C(C[C@@H]1Cc2cc(Cl)c3[nH]ncc3c2CN(CC(F)(F)F)C1=O)N1CCC(n2cc[nH]c2=O)CC1
0.01 to 10 | O=C(C[C@@H]1Cc2cc(Cl)c3[nH]ncc3c2CN(CC(F)(F)F)C1=O)N1CCC(n2c(=O)[nH]c3ccccc32)CC1
10 to 100 | N#Cc1cn(C2CCN(C(=O)C[C@@H]3Cc4cc(Cl)c5[nH]ncc5c4CN(CC(F)(F)F)C3=O)CC2)c(=O)[nH]1
> 1000 | O=C(C[C@@H]1Cc2cc(Cl)c3[nH]ncc3c2CN(CC(F)(F)F)C1=O)N1CCC(n2ccn(-c3ccccc3F)c2=O)CC1
> 1000 | O=C(C[C@@H]1Cc2cc(Cl)c3[nH]ncc3c2CN(CC(F)(F)F)C1=O)N1CCC(N2CCN(c3ccccc3F)C2=O)CC1
0.01 to 10 | O=C(C[C@@H]1Cc2cc(Cl)c3[nH]ncc3c2CN(CC(F)(F)F)C1=O)N1CCC(n2c(=O)[nH]c3ncccc32)CC1
10 to 100 | O=C(C[C@@H]1Cc2cc(Cl)c3[nH]ncc3c2CN(CC(F)(F)F)C1=O)N1CCC(n2c(=O)[nH]c3c2ccc[n+]3[O-])CC1
0.01 to 10 | O=C(C[C@@H]1Cc2cc(Br)c3[nH]nc(Br)c3c2CN(CC(F)(F)F)C1=O)N1CCC(n2c(=O)[nH]c3ncccc32)CC1
0.01 to 10 | O=C(C[C@@H]1Cc2cc(Br)c3[nH]nc(Br)c3c2CN(CC(F)(F)F)C1=O)N1CCC(N2CCc3ccccc3NC2=O)CC1
10 to 100 | O=C(C[C@@H]1Cc2cc(Cl)c3[nH]ncc3c2CN(CC(F)(F)F)C1=O)N1CCC(N2CCc3cccc(F)c3NC2=O)CC1
0.01 to 10 | O=C(C[C@@H]1Cc2cc(Cl)c3[nH]ncc3c2CN(CC(F)(F)F)C1=O)N1CCC(N2CCc3cccnc3NC2=O)CC1
0.01 to 10 | O=C(C[C@@H]1Cc2cc(Cl)c3[nH]ncc3c2CN(CC(F)(F)F)C1=O)N1CCC(N2CCc3ncccc3NC2=O)CC1
0.01 to 10 | O=C(C[C@@H]1Cc2cc(Cl)c3[nH]ncc3c2CN(CC(F)(F)F)C1=O)N1CCC(n2c(=O)[nH]c3c(F)cccc32)CC1
0.01 to 10 | O=C(C[C@@H]1Cc2cc(Br)c3[nH]nc(Cl)c3c2CN(CC(F)(F)F)C1=O)N1CCC(N2CCc3ccccc3NC2=O)CC1
0.01 to 10 | O=C(C[C@@H]1Cc2cc(Br)c3[nH]nc(Cl)c3c2CN(CC(F)(F)F)C1=O)N1CCC(n2c(=O)[nH]c3ncccc32)CC1
0.01 to 10 | O=C(C[C@@H]1Cc2cc(Cl)c3[nH]nc(Cl)c3c2CN(CC(F)(F)F)C1=O)N1CCC(N2CCc3ccccc3NC2=O)CC1
0.01 to 10 | O=C(C[C@@H]1Cc2cc(Cl)c3[nH]nc(Cl)c3c2CN(CC(F)(F)F)C1=O)N1CCC(n2c(=O)[nH]c3ncccc32)CC1
0.01 to 10 | O=C(C[C@@H]1Cc2cc(Cl)c3[nH]nc(Cl)c3c2CN(CCN2CCCCC2)C1=O)N1CCC(N2CCc3ccccc3NC2=O)CC1

IC50 [nM] | SMILES
0.01 to 10 | O=C(C[C@@H]1Cc2cc(Cl)c3[nH]nc(Cl)c3c2CN(CCN2CCCCC2)C1=O)N1CCC(n2c(=O)[nH]c3ncccc32)CC1
0.01 to 10 | Cn1ccc2[nH]c(=O)c(C3CCN(C(=O)C[C@@H]4Cc5cc(Cl)c6[nH]ccc6c5CN(CC(C)(C)C)C4=O)CC3)cc21
0.01 to 10 | CC(C)(C)CN1Cc2c(cc(Cl)c3[nH]ccc23)C[C@@H](CC(=O)N2CCC(c3cc4sccc4[nH]c3=O)CC2)C1=O
0.01 to 10 | CC(C)(C)CN1Cc2c(cc(Cl)c3[nH]ncc23)C[C@@H](CC(=O)N2CCC(c3cc4scc(Br)c4[nH]c3=O)CC2)C1=O
0.01 to 10 | CC(C)(C)CN1Cc2c(cc(Cl)c3[nH]ncc23)C[C@@H](CC(=O)N2CCC(c3cc4sc(Cl)cc4[nH]c3=O)CC2)C1=O
0.01 to 10 | CC(C)(C)CN1Cc2c(cc(Cl)c3[nH]ccc23)C[C@@H](CC(=O)N2CCC(c3cc4[nH]ccc4[nH]c3=O)CC2)C1=O
100 to 1000 | CC(C)(C)CN1Cc2c(cc(Cl)c3[nH]ccc23)C[C@@H](CC(=O)N2CCC(O)(c3cc(Cl)nc4[nH]ccc34)CC2)C1=O
0.01 to 10 | O=C(O[C@@H]1Cc2cc(Cl)c3[nH]ncc3c2CN(CC(F)(F)F)C1=O)N1CCC(N2CCc3ccccc3NC2=O)CC1
0.01 to 10 | O=C(O[C@@H]1Cc2cc(Cl)c3[nH]ncc3c2CN(CC(F)(F)F)C1=O)N1CCC(n2c(=O)[nH]c3ncccc32)CC1
0.01 to 10 | O=C1Nc2ccccc2C2(CCN(C(=O)C[C@@H]3Cc4cc(Cl)c5[nH]ncc5c4CN(CC(F)(F)F)C3=O)CC2)N1
100 to 1000 | O=C1NC(=O)C(C2CCN(C(=O)C[C@@H]3Cc4cc(Cl)c5[nH]ncc5c4CN(CC(F)(F)F)C3=O)CC2)N1 (some centres unmarked)
10 to 100 | O=C1NC(=O)C2(CCN(C(=O)C[C@@H]3Cc4cc(Cl)c5[nH]ncc5c4CN(CC(F)(F)F)C3=O)CC2)N1
10 to 100 | N#Cc1cc(Cl)ccc1C1=CCN(C(=O)C[C@@H]2Cc3cc(Cl)c4[nH]ncc4c3CN(CC(F)(F)F)C2=O)CC1
0.01 to 10 | Cn1ncc2c3c(cc(Cl)c21)C[C@@H](CC(=O)N1CCC(n2c(=O)[nH]c4ncccc42)CC1)C(=O)N(CC(F)(F)F)C3
10 to 100 | CCn1ncc2c3c(cc(Cl)c21)C[C@@H](CC(=O)N1CCC(n2c(=O)[nH]c4ncccc42)CC1)C(=O)N(CC(F)(F)F)C3
10 to 100 | O=C(C[C@@H]1Cc2cc(Cl)c3c(cnn3Cc3ccccc3)c2CN(CC(F)(F)F)C1=O)N1CCC(n2c(=O)[nH]c3ncccc32)CC1
0.01 to 10 | Cn1ncc2c3c(cc(Cl)c21)C[C@@H](CC(=O)N1CCC(N2CCc4ccccc4NC2=O)CC1)C(=O)N(CC(F)(F)F)C3
10 to 100 | CCCn1ncc2c3c(cc(Cl)c21)C[C@@H](CC(=O)N1CCC(N2CCc4ccccc4NC2=O)CC1)C(=O)N(CC(F)(F)F)C3
10 to 100 | COCn1ncc2c3c(cc(Cl)c21)C[C@@H](CC(=O)N1CCC(N2CCc4ccccc4NC2=O)CC1)C(=O)N(CC(F)(F)F)C3
0.01 to 10 | COCCn1ncc2c3c(cc(Cl)c21)C[C@@H](CC(=O)N1CCC(N2CCc4ccccc4NC2=O)CC1)C(=O)N(CC(F)(F)F)C3

same assay, conditions: Table 2; displacement of [125I]-CGRP, SK-N-MC membranes

IC50 [nM] | SMILES
0.01 to 10 | O=C(C[C@@H]1Cc2cc(Cl)c3[nH]ncc3c2CN(Cc2ccncc2)C1=O)N1CCC(c2cc3cccc(F)c3[nH]c2=O)CC1
100 to 1000 | O=C1Nc2ccccc2CC1N1CCN(C(=O)N[C@@H]2Cc3ccc4[nH]ncc4c3CN(Cc3ccccc3)C2=O)CC1 (some centres unmarked)
100 to 1000 | CC(C)(C)CN1Cc2c(ccc3[nH]ncc23)C[C@@H](NC(=O)N2CCC3(CC2)N=C(c2ccccc2)NC3=O)C1=O
> 1000 | CC(C)(C)CN1Cc2c(ccc3[nH]ncc23)C[C@@H](NC(=O)N2CCC3(CC2)CC(=O)Nc2ccccc23)C1=O
10 to 100 | CC(=O)N1CCC(N2Cc3c(ccc4[nH]ncc34)C[C@@H](NC(=O)N3CCC(N4Cc5ccccc5NC4=O)CC3)C2=O)CC1
> 1000 | COc1cc2ccccc2cc1C1CCN(C(=O)N[C@@H]2Cc3cc(Cl)c4[nH]ncc4c3CN(CC(C)(C)C)C2=O)CC1
0.01 to 10 | O=C(C[C@@H]1Cc2cc(Cl)c3[nH]ncc3c2CN(CC(F)(F)F)C1=O)N1CCC(N2Cc3ccccc3NC2=O)CC1
0.01 to 10 | CC(C)(C)CN1Cc2c(cc(Cl)c3[nH]ncc23)C[C@@H](CC(=O)N2CCC(N3Cc4cccnc4NC3=O)CC2)C1=O
0.01 to 10 | CC(C)(C)CN1Cc2c(cc(Cl)c3[nH]ncc23)C[C@@H](CC(=O)N2CCC(c3cc4cccnc4[nH]c3=O)CC2)C1=O
0.01 to 10 | O=C(C[C@@H]1Cc2cc(Cl)c3[nH]ncc3c2CN(Cc2ccncc2)C1=O)N1CCC(c2cc3ccccc3c[n+]2[O-])CC1
0.01 to 10 | CC(C)(C)CN1Cc2c(cc(Cl)c3[nH]ncc23)C[C@@H](CC(=O)Nc2ccc3c(c2)CCC2(C3)NC(=O)NC2=O)C1=O (some centres unmarked)
0.01 to 10 | CC(C)(C)CN1Cc2c(ccc3[nH]ncc23)CC(N/C(=N/C#N)N2CCC(N3Cc4ccccc4NC3=O)CC2)C1=O (centres unmarked)
0.01 to 10 | O=C(C[C@@H]1Cc2cc(Cl)c3[nH]ncc3c2CN(CC(F)(F)F)C1=O)N1CCC(c2cc3cccnc3[nH]c2=O)CC1
0.01 to 10 | O=C(C[C@@H]1Cc2cc(Cl)c3[nH]ncc3c2CN(CC(F)(F)F)C1=O)N1CCC(c2cc3ccccc3[nH]c2=O)CC1
0.01 to 10 | O=C(C[C@@H]1Cc2cc(Cl)c3[nH]ncc3c2CN(CC(F)(F)F)C1=O)N1CCC(c2cc3cccc(F)c3[nH]c2=O)CC1
0.01 to 10 | CC(C)(C)CN1Cc2c(cc(Br)c3[nH]ncc23)C[C@@H](CC(=O)N2CCC(c3cc4ccccc4[nH]c3=O)CC2)C1=O
0.01 to 10 | O=C(C[C@@H]1Cc2cc(Br)c3[nH]ncc3c2CN(CC(F)(F)F)C1=O)N1CCC(c2cc3cccnc3[nH]c2=O)CC1
0.01 to 10 | O=C(C[C@@H]1Cc2cc(Br)c3[nH]ncc3c2CN(CC(F)(F)F)C1=O)N1CCC(c2cc3ccccc3[nH]c2=O)CC1
0.01 to 10 | CC(C)(C)CN1Cc2c(cc(Cl)c3[nH]ncc23)C[C@@H](N/C(=N/C#N)N2CCC(c3cc4ccccc4[nH]c3=O)CC2)C1=O
